We go through one compound from patent US5436243A, “Aminoanthraquinone derivatives to combat multidrug resistance” (priority 1993, dated 1995).

One series relates to mice. In words: Preliminary animal toxicity studies. It is filed as in vivo. The conditions noted are these: 400 mg/kg.
Series [1] deals with P-glycoprotein in MCF7 Adr 10 membrane vesicles (Homo sapiens, UniProt P08183). In words: biochemical. The following applies: read-out: decrease of specific binding of [3H] VLB.
A further series relates to PKC. In words: Micellar PKC screening assay. It is filed as biochemical. An excerpt: The N-substituted diaminoanthraquinone, 1b, (1,4-bis-[[3'-(diethylamino)propyl]amino]anthraquinone), was identified as a PKC inhibitor in the micellar PKC screening assay and in platelets. […] Spectrophotometric analysis of 1b and lc indicated they were excellent chromophores with absorbance maxima at 648 and 600 nm in chloroform, respectively, and extinction coefficients of approximately 20,000. At these wavelengths, there was minimal absorbance by cellular components contained in the chloroform phase. These properties of 1b and 1c were utilized to determine the time course of accumulation of these compounds in MDR MCF7 Adr 10 cells.
The activities of 1a, 1b, 1c and 1d and mitoxantrone, an anthraquinone antineoplastic drug, were evaluated in vinblastine drug accumulation assays performed by the following method. […] Mitoxantrone was identified as a PKC inhibitor in miceliar PKC assays. Compound 1d (1,4-bis-[[2-(4-morpholino)ethyl]amino]anthraquinone) was only evaluated in cellular studies.

Series [2] relates to SKRC7 human renal cell line. In words: Vinblastine accumulation assay, SKRC7. The conditions noted are these: 10 μM, 10 nM [3H] vinblastine. It is filed as cell-based. As to the method:
These cell lines are models of intrinsic resistance.
[^3 H] vinblastine was added to a final concentration of 10 nM and the cells were incubated for 2.5 hours. At this time, the cells were washed 3 times in ice cold PBS and lysed in buffer containing 0.1% Triton X-100.

Series [3] deals with catalytic subunits of protein kinase A. In words: Protein kinase A catalytic subunit inhibition. It is filed as biochemical. An excerpt: (§1) One possible explanation for stimulation of phosphorylation of P-glycoprotein and MARCKS is that 1c may activate PKC or other cellular kinases by signal transduction pathways that have not yet been identified to phosphorylate these proteins. An alternative explanation for stimulation of phosphorylation of P-glycoprotein and MARCKS is that 1c inhibits protein phosphatases.

Series [4] can be described thus: [3H] VLB binding to MCF7 WT membrane vesicles. Also on record: species or system human. The conditions noted are these: MCF7 WT membrane vesicles. The procedure: METHOD: Membrane vesicles from sensitive and MDR MCF7 were prepared by nitrogen cavitation and isolated by centrifugation in discontinuous sucrose gradients. […] In the presence of 100 nM [^3 H] VLB and ATP, total and nonspecific binding of [^3 H] VLB (experimentally defined as binding in the presence of a 100 μM unlabeled VLB) was measured. Association of [^3 H] […] In contrast, association of [^3 H] […] VLB with MCF7 WT vesicles.

Series [5] is described as follows: Partition in Bligh-Dyer extracts. It is filed as physicochemical. The conditions noted are these: Bligh-Dyer extracts of treated cells. The procedure: At these wavelengths, there was minimal absorbance by cellular components contained in the chloroform phase. […] METHOD: […] The monolayers were treated with 25 μM 1b or 1c and incubated at 37° C. After incubating the samples for the times indicated in FIG. 1, the monolayers were washed three times with DPBS and detached using 1 ml of Trypsin-EDTA.An aliquot of the cell suspension was counted using a Coulter Counter and a 0.8 ml aliquot was extracted in a Bligh-Dyer extraction (Bligh et at., Can. J. Biochem. 31:911-916 (1959)). The absorbance of the lower chloroform phase was measured at 648 nm and 600 nm using a spectrophotometer. The amount of 1b or 1c present in the extract was quantitated from a standard curve performed in cell extracts. The data is expressed as nmol anthraquinone/10^6 cells.

The test system of series [6] is granulocyte-macrophage progenitors (CFU-GM). Description: cells. As to the method: Myelosuppression is often a dose limiting side effect of chemotherapeutic agents. […] The toxicities to human granulocyte-macrophage progenitors (CFU-GM) of 1b, 1c, and VLB was assessed by measuring inhibition of CFU-GM proliferation in cultures continuously exposed to each agent alone and compared to the toxicities to sensitive and resistant MCF7 in tumor cell clonogenic assays.
METHOD: The CFLI-GM assay measures clonal proliferation of granulocyte/macrophage precursors in semisolid agar cultures. The progeny of the granulocyte/macrophage precursors remain in proximity of the progenitor cells and form colonies. Colonies which contain greater than 40 cells after 10-12 days of culture are counted using an inverted phase contrast microscope. The tumor cell clonogenic assays measure clonal proliferation of tumor cells. In this assay, 300-500 cells are plated in 10 cm^2 wells, allowed to adhere overnight, and are treated the following day. Tumor cell colonies were counted after 10-12 days of culture. The times of exposure in these experiments are similar; however, the concentrations of FCS are 20% in the CFU-GM assay and 10% in the tumor cell clonogenic assays. The IC50's are calculated as described above for the MTT proliferation assays. (See Example 4).
To facilitate this comparison, a CFLI-GM toxicity index was calculated by dividing the CFU-GM IC50 by the respective tumor cell clonogenic IC50's in sensitive and resistant cells.

The next series deals with calmodulin kinase. Description: Calmodulin kinase inhibition. It is filed as biochemical.
Excerpt: as §1

A further series concerns MCF7 Adr 10. In words: Tumor cell clonogenic assay, MCF7 ADR 10. It is filed as cell-based, human.
Series [7] relates to MCF7 Adr 10 human breast cancer cells. Description: Time course of accumulation of anthraquinones in cells. The following applies: 25 μM, 37° C., MCF7 Adr 10 cells. It is filed as cell-based. As to the method: METHOD: Near confluent monolayers of MCF7 ADR 10 were washed 2 times with Dulbecco's Phosphate Buffered Saline (DPBS) and 1 ml of Iscove's Modified Dulbecco's Medium (IMDM) was added to each well. The monolayers were treated with 25 μM 1b or 1c and incubated at 37° C. After incubating the samples for the times indicated in FIG. 1, the monolayers were washed three times with DPBS and detached using 1 ml of Trypsin-EDTA.An aliquot of the cell suspension was counted using a Coulter Counter and a 0.8 ml aliquot was extracted in a Bligh-Dyer extraction (Bligh et at., Can. J. Biochem. 31:911-916 (1959)). The absorbance of the lower chloroform phase was measured at 648 nm and 600 nm using a spectrophotometer. The amount of 1b or 1c present in the extract was quantitated from a standard curve performed in cell extracts. The data is expressed as nmol anthraquinone/10^6 cells.

A further series deals with other phosphoproteins. Description: Overall phosphoprotein changes in cell extracts. It is filed as cell-based.
Excerpt: as §1

Each structure is given as a SMILES string.

As a reminder, the IC50 is the concentration needed to halve the response being measured.

Sequence of P-glycoprotein in MCF7 Adr 10 membrane vesicles (P08183 whole entry): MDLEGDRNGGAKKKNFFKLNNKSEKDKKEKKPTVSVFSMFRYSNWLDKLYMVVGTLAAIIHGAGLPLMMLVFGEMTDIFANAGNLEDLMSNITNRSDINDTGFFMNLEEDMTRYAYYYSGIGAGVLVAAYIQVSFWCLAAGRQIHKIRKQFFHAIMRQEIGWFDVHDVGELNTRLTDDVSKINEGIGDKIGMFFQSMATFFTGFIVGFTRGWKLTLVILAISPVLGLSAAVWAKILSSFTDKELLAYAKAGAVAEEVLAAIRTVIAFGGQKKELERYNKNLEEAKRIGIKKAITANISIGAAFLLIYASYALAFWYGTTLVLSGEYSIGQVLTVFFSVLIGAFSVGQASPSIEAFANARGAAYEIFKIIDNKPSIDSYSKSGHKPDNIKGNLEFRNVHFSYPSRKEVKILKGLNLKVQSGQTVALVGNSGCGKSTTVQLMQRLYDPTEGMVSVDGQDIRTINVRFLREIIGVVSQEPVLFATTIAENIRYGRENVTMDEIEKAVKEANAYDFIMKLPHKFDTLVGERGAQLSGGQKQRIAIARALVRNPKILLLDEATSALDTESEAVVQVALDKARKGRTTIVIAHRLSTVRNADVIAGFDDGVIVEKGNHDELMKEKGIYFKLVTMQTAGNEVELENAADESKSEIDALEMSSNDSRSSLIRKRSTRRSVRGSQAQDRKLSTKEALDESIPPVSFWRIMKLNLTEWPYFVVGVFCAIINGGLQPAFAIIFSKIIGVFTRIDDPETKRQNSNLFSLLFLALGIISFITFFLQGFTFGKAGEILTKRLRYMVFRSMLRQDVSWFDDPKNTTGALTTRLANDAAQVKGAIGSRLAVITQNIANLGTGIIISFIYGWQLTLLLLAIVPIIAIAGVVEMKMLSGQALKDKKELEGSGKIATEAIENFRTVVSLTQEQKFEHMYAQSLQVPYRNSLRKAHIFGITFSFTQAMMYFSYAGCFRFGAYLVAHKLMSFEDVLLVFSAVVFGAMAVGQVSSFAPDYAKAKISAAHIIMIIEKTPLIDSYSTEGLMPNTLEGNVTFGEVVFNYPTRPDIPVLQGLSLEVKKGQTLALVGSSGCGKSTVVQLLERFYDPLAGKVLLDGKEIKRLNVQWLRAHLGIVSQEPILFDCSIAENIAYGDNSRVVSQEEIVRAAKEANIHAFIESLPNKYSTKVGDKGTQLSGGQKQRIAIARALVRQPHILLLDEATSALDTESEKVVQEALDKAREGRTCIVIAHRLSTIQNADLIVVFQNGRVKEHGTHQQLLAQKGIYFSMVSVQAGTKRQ

Consider `O=C1c2ccccc2C(=O)c2c(NCCCN3CCOCC3)ccc(NCCCN3CCOCC3)c21` [Compound 1c, 1,4-bis-[[3'(4-morpholino)propyl]amino]anthraquinone], for which the toxicity in mice result with mice is given as “not toxic at 400 mg/kg in mice”. Moreover, in series [1], the inhibition at 5 µM is 29%, the inhibition at 10 µM is 42% and the inhibition at 25 µM amounted to 69%. In the series on PKC, the “PKC activity in micellar PKC screening assay” value was “marginal PKC inhibitory activity”. For the same compound, the “vinblastine accumulation relative to verapamil” value in series [2] was “comparable or superior to verapamil activity”. For the same compound, the “protein kinase A inhibitory activity” value in series [3] is on record as “did not inhibit”. For the same compound, the “effect on specific binding of [3H] VLB” value in [4] is reported as “no effect”. Besides, the “blue color partitioning with cellular phospholipids in the lower chloroform phase” value in [5] is greater than 95%. The IC50 in [6] (Homo sapiens, CFU-GM, read-out: Continuous Exposure IC50, CFU-GM) was determined as 7.8 µM. Moreover, the “CFU-GM Toxicity Index (CFU-GM IC50 / Tumor Cell Clonogenic IC50)” value in [6] (human) is 19.5. In the series with calmodulin kinase, the “calmodulin kinase inhibitory activity” value is “did not inhibit”. In the series on MCF7 Adr 10 (Homo sapiens, NCI/ADR-RES, tumor cell clonogenic assay, 10-12 days, read-out: Continuous Exposure IC50, MCF7 ADR 10), the IC50 worked out at 0.4 µM. Besides, the “antiproliferative effect relative to human CFU-GM” value with MCF7 Adr 10 (MDR cancer cells, clonal proliferation assays) is recorded as roughly 20 times. In addition, in the series with MCF7 Adr 10 (clonogenic assays), the “relative sensitivity of MCF7 WT and MDR MCF7 to cytotoxicity” value is reported as “MDR MCF7 are twice as sensitive to 1c cytotoxicity as MCF7 WT”. Besides, in series [7], the “time of maximal accumulation of 1b and 1c” value is recorded as “about 2 hours”. For the same compound, the “phosphorylation of other phosphoproteins” value in the series on other phosphoproteins is given as “did not significantly alter phosphorylation of other phosphoproteins”.
